This note sets out measurements from patent publication US20140309210A1, “INDAZOLE COMPOUNDS, COMPOSITIONS AND METHODS OF USE THEREOF” (Genentech, Inc., priority 2011, published 2014).

For this assay, the target named is T1, purified ITK (Invitrogen PV3875) (Homo sapiens, UniProt Q08881).
T1 construct: purchased Invitrogen PV3875
T1 sequence (Q08881 1-620): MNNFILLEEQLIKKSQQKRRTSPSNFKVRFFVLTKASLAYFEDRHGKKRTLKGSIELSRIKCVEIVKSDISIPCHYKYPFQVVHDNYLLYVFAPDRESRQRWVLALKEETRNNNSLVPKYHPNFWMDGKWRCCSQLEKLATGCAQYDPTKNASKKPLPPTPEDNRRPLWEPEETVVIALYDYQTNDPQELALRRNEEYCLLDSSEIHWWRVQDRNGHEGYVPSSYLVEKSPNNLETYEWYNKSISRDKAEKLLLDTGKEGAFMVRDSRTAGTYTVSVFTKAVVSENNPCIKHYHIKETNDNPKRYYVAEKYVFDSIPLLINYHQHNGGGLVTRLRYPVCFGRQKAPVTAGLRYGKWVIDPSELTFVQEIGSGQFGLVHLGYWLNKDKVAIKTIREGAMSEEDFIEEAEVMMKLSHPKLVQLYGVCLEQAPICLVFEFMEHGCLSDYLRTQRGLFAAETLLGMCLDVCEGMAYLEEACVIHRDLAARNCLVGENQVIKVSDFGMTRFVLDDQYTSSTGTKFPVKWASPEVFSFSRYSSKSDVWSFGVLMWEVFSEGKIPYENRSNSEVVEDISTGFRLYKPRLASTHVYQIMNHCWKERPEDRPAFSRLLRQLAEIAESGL
Briefly: ITK peptide phosphorylation assay (Caliper LabChip or LCMS). In kind it is biochemical. Particulars: Table 1, Examples 141-279. The method, boiled down: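 Ki values come from Morrison quadratic fits of activity versus inhibitor concentration, adjusted for ATP-competitive inhibition against ATP/Km,app. Substrate and phosphopeptide from purified ITK reactions were resolved either microfluidically (Caliper, EDTA stop) or by LC-MS MRM (TCA stop).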
As usually defined, the Ki is the dissociation constant of the complex between target and ligand, obtained from inhibition or displacement. The low end stands for a stronger hold on the target, the high end for a looser hold on the target. Consider `O=C(Nc1cn[nH]c1)c1n[nH]c2cc(-c3cn[nH]c3)ccc12` [Example 168, N,6-bis(1H-pyrazol-4-yl)-1H-indazole-3-carboxamide], for which the Ki was 0.0216 µM. That is a double-digit nanomolar value.

Compound `O=C(Nc1cnn(CCC2CCCCC2)c1)c1n[nH]c2cc(-c3cn[nH]c3)ccc12` [Example 169, N-[1-(2-cyclohexylethyl)py-razol-4-yl]-6-(1H-pyrazol-4-yl)-1H-indazole-3-carboxamide] came in with a Ki of 0.00765 µM. This Ki is about 2.8-fold lower than that of the compound before.

For the compound `CC(C)(O)Cn1cc(NC(=O)c2n[nH]c3cc(-c4cn[nH]c4)ccc23)cn1` [Example 170, N-[1-(2-hydroxy-2-methyl-propyl)pyrazol-4-yl]-6-(1H-pyrazol-4-yl)-1H indazole-3-carboxamide], the inhibitory constant (Ki) turned out to be 0.00874 µM.

Regarding `CCN(CC)CCn1cc(NC(=O)c2n[nH]c3cc(-c4cn[nH]c4)ccc23)cn1` [Example 171, N-[1-[2-(diethylamino)eth-yl]pyrazol-4-yl]-6-(1H-pyrazol-4-yl)-1H-indazole-3-carboxamide], the affinity, expressed as Ki, was 0.00799 µM.

In turn, `CN1CCC(Nc2ccc3c(C(=O)Nc4cnn(Cc5cccc(C#N)c5)c4)n[nH]c3c2)C1` (centres unmarked) [Example 172, N-[1-[(3-cyanophenyl)meth-yl]pyrazol-4-yl]-6-[(1-methylpyrrolidin-3-yl)amino]-1H-indazole-3-carboxamide] gave a Ki of 1.4 µM.

As to `N#Cc1cccc(Cn2cc(NC(=O)c3n[nH]c4cc(NC5CCNCC5)ccc34)cn2)c1` [Example 173, N-[1-[(3-cyanophenyl)meth-yl]pyrazol-4-yl]-6-(4-piperidylamino)-1H-indazole-3-carboxamide], the Ki was 1.2 µM.

The compound `CC[C@H](c1cscn1)n1cc(NC(=O)c2n[nH]c3cc(-c4cn[nH]c4)ccc23)cn1` [Example 174, 6-(1H-pyrazol-4-yl)-N-[1-[(1R)-1-thiazol-4-ylpropyl]pyrazol-4-yl]-1H-indazole-3-carboxamide] came in with an inhibition constant (Ki) of 0.00142 µM.

In turn, `CC[C@@H](c1cscn1)n1cc(NC(=O)c2n[nH]c3cc(-c4cn[nH]c4)ccc23)cn1` [Example 175, 6-(1H-pyrazol-4-yl)-N-[1-[(1S)-1-thiazol-4-ylpropyl]pyrazol-4-yl]-1H-indazole-3-carboxamide] registered a Ki of 0.0007 µM.

On to `CN1CCN(c2ccc3c(C(=O)Nc4cnn(Cc5cccc(C#N)c5)c4)n[nH]c3c2)CC1` [Example 176, N-[1-[(3-cyanophenyl)meth-yl]pyrazol-4-yl]-6-(4-methylpiperazin-1-yl)-1H-indazole-3-carboxamide], for which the affinity corresponds to a Ki of 0.374 µM.

`O=C(Nc1cnn([C@@H](CO)c2cscn2)c1)c1n[nH]c2cc(-c3cn[nH]c3)ccc12` [Example 177, N-[1-[(1R)-2-hydroxy-1-thiazol-4-yl-ethyl]pyrazol-4-yl]-6-(1H-pyrazol-4-yl)-1H-indazole-3-carboxamide]: the inhibition constant Ki worked out at 0.0075 µM.

The compound `O=C(Nc1cnn([C@H](CO)c2cscn2)c1)c1n[nH]c2cc(-c3cn[nH]c3)ccc12` [Example 178, N-[1-[(1S)-2-hydroxy-1-thiazol-4-yl-ethyl]pyrazol-4-yl]-6-(1H-pyrazol-4-yl)-1H-indazole-3-carboxamide] had an inhibition constant (Ki) of 0.00619 µM.

Consider `N#Cc1cccc(Cn2cc(NC(=O)c3n[nH]c4cc(C5CCNCC5)ccc34)cn2)c1` [Example 179, N-[1-[(3-cyanophenyl)meth-yl]pyrazol-4-yl]-6-(4-piperidyl)-1H-indazole-3-carboxamide], for which affinity was put at a Ki of 0.154 µM.

The compound `N#Cc1cccc(Cn2cc(NC(=O)c3n[nH]c4ccc(NC5CCNCC5)cc34)cn2)c1` [Example 180, N-[1-[(3-cyanophenyl)methyl]pyrazol-4-yl]-5-(4-piperidylamino)-1H-indazole-3-carboxamide] displayed a Ki of 0.00271 µM.

Regarding `O=C(Nc1cnn(Cc2ccccc2)c1)c1n[nH]c2cc(-c3cn[nH]c3)ccc12` [Example 181, N-(1-benzylpyrazol-4-yl)-6-(1H-pyrazol-4-yl)-1H-indazole-3-carboxamide], the affinity corresponds to a Ki of 0.00107 µM.

`N#Cc1cccc(Cn2cc(NC(=O)c3n[nH]c4cc(C5CNC5)ccc34)cn2)c1` [Example 182, 6-(azetidin-3-yl)-N-[1-[(3-cyanophenyl)meth-yl]pyrazol-4-yl]-1H-indazole-3-carboxamide] registered a Ki of 0.24 µM.

`N#Cc1cccc(Cn2cc(NC(=O)c3n[nH]c4ccc(NC5CCNC5)cc34)cn2)c1` (centres unmarked) [Example 183, N-[1-[(3-cyanophenyl)meth-yl]pyrazol-4-yl]-5-(pyrrolidin-3-ylamino)-1H-indazole-3-carboxamide] yielded an inhibition constant Ki of 0.00752 µM.

For `CN1CCC(Nc2ccc3[nH]nc(C(=O)Nc4cnn(Cc5cccc(C#N)c5)c4)c3c2)CC1` [Example 184, N-[1-[(3-cyanophenyl)meth-yl]pyrazol-4-yl]-5-[(1-methyl-4-piperidyl)amino]-1H-indazole-3-carboxamide], the affinity corresponds to a Ki of 0.00133 µM.

In turn, `O=C(Nc1cnn(C2CCOc3ccccc32)c1)c1n[nH]c2cc(-c3cn[nH]c3)ccc12` (centres unmarked) [Example 185, N-(1-chroman-4-ylpyrazol-4-yl)-6-(1H-pyrazol-4-yl)-1H-indazole-3-carboxamide] had a Ki of 0.759 µM.

As to `CC(CO)c1ccc2[nH]nc(C(=O)Nc3cnn(Cc4cccc(C#N)c4)c3)c2c1` (centres unmarked) [Example 186, N-[1-[(3-cyanophenyl)meth-yl]pyrazol-4-yl]-5-(2-hydroxy-1-methyl-ethyl)-1H-indazole-3-carboxamide], the affinity, expressed as Ki, was 0.022 µM.

`CC(CO)c1ccc2[nH]nc(C(=O)Nc3cnn(Cc4cccc(C#N)c4)c3)c2c1` (centres unmarked) [Example 187, N-[1-[(3-cyanophenyl)meth-yl]pyrazol-4-yl]-5-(2-hydroxy-1-methyl-ethyl)-1H-indazole-3-carboxamide] came in with an inhibition constant Ki of 0.0078 µM.

Compound `CN1CCC(c2ccc3c(C(=O)Nc4cnn(Cc5cccc(C#N)c5)c4)n[nH]c3c2)C1` (centres unmarked) [Example 188, N-[1-[(3-cyanophenyl)meth-yl]pyrazol-4-yl]-6-(1-methylpyrrolidin-3-yl)-1H-indazole-3-carboxamide] showed a Ki of 1.6 µM. This Ki is about 210-fold higher than that of the compound before.

Regarding `CNc1cncc(-c2ccc3c(C(=O)Nc4cnn(Cc5ccccc5)c4)n[nH]c3c2)n1` [Example 189, N-(1-benzylpyrazol-4-yl)-6-[6-(methylamino)py-razin-2-yl]-1H-indazole-3-carboxamide], the affinity corresponds to a Ki of 0.0248 µM.

`CNc1ncc(-c2ccc3c(C(=O)Nc4cnn(Cc5ccccc5)c4)n[nH]c3c2)s1` [Example 190, N-(1-benzylpyrazol-4-yl)-6-[2-(methylamino)thi-azol-5-yl]-1H-indazole-3-carboxamide] gave an inhibition constant (Ki) of 0.0185 µM.

Compound `CN1CC(c2ccc3c(C(=O)Nc4cnn(Cc5cccc(C#N)c5)c4)n[nH]c3c2)C1` [Example 191, N-[1-[(3-cyanophenyl)meth-yl]pyrazol-4-yl]-6-(1-methylazetidin-3-yl)-1H-indazole-3-carboxamide] displayed an inhibition constant (Ki) of 2.4 µM.

`CC(C)n1cc(NC(=O)c2n[nH]c3cc(-c4cn[nH]c4)ccc23)cn1` [Example 192, N-(1-isopropylpyrazol-4-yl)-6-(1H-pyrazol-4-yl)-1H-indazole-3-carboxamide] had a Ki of 0.0102 µM.

For `N#Cc1cccc(Cn2cc(NC(=O)c3n[nH]c4ccc(C5(CO)CC5)cc34)cn2)c1` [Example 193, N-[1-[(3-cyanophenyl)meth-yl]pyrazol-4-yl]-5-[1-(hydroxymeth-yl)cyclopropyl]-1H-indazole-3-carboxamide], the Ki was 0.0263 µM.

In the case of `N#Cc1cccc(Cn2cc(NC(=O)c3n[nH]c4ccc(NC5CCOCC5)cc34)cn2)c1` [Example 194, N-[1-[(3-cyanophenyl)meth-yl]pyrazol-4-yl]-5-(tetrahydropyran-4-ylamino)-1H-indazole-3-carboxamide], the Ki was determined as 0.106 µM. Against the preceding compound, the Ki is about 4-fold higher.

`N#Cc1cccc(Cn2cc(NC(=O)c3n[nH]c4ccc(NC5CCCCC5)cc34)cn2)c1` [Example 195, N-[1-[(3-cyanophenyl)meth-yl]pyrazol-4-yl]-5-(cyclohexylamino)-1H-indazole-3-carboxamide] displayed a Ki of 0.0424 µM.

The compound `Cn1nccc1-c1ccc2c(C(=O)Nc3cnn(Cc4cccc(C#N)c4)c3)n[nH]c2c1` [Example 196, N-[1-[(3-cyanophenyl)meth-yl]pyrazol-4-yl]-6-(2-methylpyrazol-3-yl)-1H-indazole-3-carboxamide] came in with a Ki of 0.354 µM. Compared with the last compound, the Ki is about 8.3-fold higher.

Take `N#Cc1cccc(Cn2cc(NC(=O)c3n[nH]c4cc(-c5cnco5)ccc34)cn2)c1` [Example 197, N-[1-[(3-cyanophenyl)meth-yl]pyrazol-4-yl]-6-oxazol-5-yl-1H-indazole-3-carboxamide]: the Ki is 0.00204 µM.

Compound `Cn1nc(C(F)(F)F)cc1-c1ccc2c(C(=O)Nc3cnn(Cc4cccc(C#N)c4)c3)n[nH]c2c1` [Example 198, N-[1-[(3-cyanophenyl)meth-yl]pyrazol-4-yl]-6-[2-methyl-5-(trifluorometh-yl)pyrazol-3-yl]-1H-indazole-3-carboxamide] came in with a Ki of 0.183 µM.

`Cc1cncc(-c2ccc3c(C(=O)Nc4cnn(Cc5cccc(C#N)c5)c4)n[nH]c3c2)c1` [Example 199, N-[1-[(3-cyanophenyl)meth-yl]pyrazol-4-yl]-6-(5-methyl-3-pyridyl)-1H-indazole-3-carboxamide] showed a Ki of 0.00841 µM.
